One series has as its target T1, human VR1 (Homo sapiens, UniProt Q8NER1).
T1 construct: The cloned hVR1 cDNA was constructed with pcDNA3 vector and transfected into a CHOluc9aeq cell line; expressed in transfected cells
The series is described as follows: Capsaicin-induced Ca2+ influx in the human VR1-transfected CHO cell line (Assay 1). It is filed as cell-based. The text has this:
[Measurement of Capsaicin-Induced Ca^2+ Influx in the Human VR1-Transfected CHO Cell Line] (Assay 1)
(1) Establishment of the Human VR1-CHOluc9aeq Cell Line
Human vanilloid receptor (hVR1) cDNA was cloned from libraries of axotomized dorsal root ganglia (WO2000/29577). The cloned hVR1 cDNA was constructed with pcDNA3 vector and transfected into a CHOluc9aeq cell line. The cell line contains aequorin and CRE-luciferase reporter genes as read-out signals. The transfectants were cloned by limiting dilution in selection medium (DMEM/F12. medium (Gibco BRL) supplemented with 10% FCS, 1.4 mM Sodium pyruvate, 20 mM HEPES, 0.15% Sodium bicarbonate, 100 U/ml penicillin, 100 μg/ml strept mycin, 2 mM glutamine, non-essential amino acids and 2 mg/ml G418). Ca^2+ influx was examined in the capsaicin-stimulated clones. A high responder clone was selected and used for further experiments in the project. The human VR1-CHOluc9aeq cells were maintained in the selection medium and passaged every 3-4 days at 1-2.5×10^5 cells/flask ([…]).
(2) Measurement of Ca^2+ Influx Using FDSS-3000
Human VR1-CHOluc9aeq cells were suspended in a culture medium which is the same as the selection medium except for G418 and seeded at a density of 1,000 cells per well into 384-well plates (black walled clear-base/Nalge Nunc International). Following the culture for 48 hrs the medium was changed to 2 μM Fluo-3 AM (Molecular Probes) and 0.02% Puronic F-127 in assay buffer (Hank's balanced salt solution (HBSS), 17 mM HEPES (pH7.4), 1 mM Probenecid, 0.1% BSA) and the cells were incubated for 60 min at 25° C. After washing twice with assay buffer the cells were incubated with a test compound or vehicle for 20 min at 25° C. Mobilization of cytoplasmic Ca^2+ was measured by FDSS-3000 (λex=488 nm, λem=540 nm/Hamamatsu Photonics) for 60 sec after the stimulation with 10 nM capsaicin. Integral R was calculated and compared with controls.
The data corresponds to the compounds as yielded by solid phase synthesis and thus to levels of purity of about 40 to 90%.

Like-named read-outs stand apart in the source and are kept apart here.

Broadly, the melting point is the temperature of the solid-liquid transition.

T1 sequence (Q8NER1 whole entry): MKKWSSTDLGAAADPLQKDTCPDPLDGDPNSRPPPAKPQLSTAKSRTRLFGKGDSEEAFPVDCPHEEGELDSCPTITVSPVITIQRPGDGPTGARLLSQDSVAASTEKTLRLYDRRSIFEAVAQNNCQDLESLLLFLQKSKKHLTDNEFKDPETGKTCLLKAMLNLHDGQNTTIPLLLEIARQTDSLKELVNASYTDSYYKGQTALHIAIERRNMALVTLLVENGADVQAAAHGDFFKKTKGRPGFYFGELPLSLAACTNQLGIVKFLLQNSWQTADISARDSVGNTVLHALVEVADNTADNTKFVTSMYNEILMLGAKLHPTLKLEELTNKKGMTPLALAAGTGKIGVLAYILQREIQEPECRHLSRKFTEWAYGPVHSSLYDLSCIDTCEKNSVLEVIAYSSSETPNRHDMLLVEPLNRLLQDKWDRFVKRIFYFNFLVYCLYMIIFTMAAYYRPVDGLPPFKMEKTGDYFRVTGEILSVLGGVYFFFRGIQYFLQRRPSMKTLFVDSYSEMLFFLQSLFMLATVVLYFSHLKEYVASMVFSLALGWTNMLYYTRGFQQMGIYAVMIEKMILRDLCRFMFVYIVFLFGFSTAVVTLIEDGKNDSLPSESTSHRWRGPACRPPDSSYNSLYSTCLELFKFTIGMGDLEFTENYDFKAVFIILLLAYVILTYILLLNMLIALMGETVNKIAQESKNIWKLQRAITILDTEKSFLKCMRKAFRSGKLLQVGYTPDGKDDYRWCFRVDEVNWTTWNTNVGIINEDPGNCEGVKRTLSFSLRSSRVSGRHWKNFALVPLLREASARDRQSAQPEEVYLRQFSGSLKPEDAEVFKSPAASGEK

On to `O=C(Nc1ccc(Cl)c(C(F)(F)F)c1)Nc1ccc2ncsc2c1` [Example 1, N-(1,3-benzothiazol-6-yl)-N′-[4-chloro-3-(trifluoromethyl)phenyl]urea], for which the melting point lay within 225 to 228 °C. For the same compound, the IC50 at human VR1 (read-out: Activity grade) was under 100 nM.
On to `O=C(Nc1cccc(-c2ccccc2)c1)Nc1cccc2[nH]ccc12` [Example 2, N-(1,1′-biphenyl-3-yl)-N′-(1H-indol-4-yl)urea], for which the melting point fell in the range of 213 to 215 °C. The IC50 on human VR1 (read-out: Activity grade) was under 100 nM.
In turn, `O=C(Nc1ccc(Cl)c(C(F)(F)F)c1)Nc1ccc2[nH]ncc2c1` [Example 3] registered a melting point of over 250 °C. Further, the IC50 on human VR1 (read-out: hVR1 class) is under 100 nM.
As to `O=C(Nc1ccc(Cl)c(C(F)(F)F)c1)Nc1cccc2[nH]nnc12` [Example 4], the melting point fell in the range of 232 to 235 °C. Also, the IC50 on human VR1 (read-out: hVR1 class) is 100 to 500 nM.
The matching figures for `O=C(Nc1ccc(Cl)c(C(F)(F)F)c1)Nc1ccc2[nH]ccc2c1` [Example 5]: 234 to 235 °C and 100 to 500 nM.
In the same order, the values of `O=C(Nc1ccc(Cl)c(C(F)(F)F)c1)Nc1ccc2cc[nH]c2c1` [Example 6] are 245 to 248 °C and 100 to 500 nM.
The matching figures for `O=C(Nc1ccc(Cl)c(C(F)(F)F)c1)Nc1cccc2cc[nH]c12` [Example 7]: 229 to 233 °C and under 100 nM.
The compound `O=C(Nc1ccc(Cl)c(C(F)(F)F)c1)Nc1cccc2[nH]ccc12` [Example 8] yielded a melting point of 230 to 233 °C. The IC50 at human VR1 (read-out: hVR1 class) is under 100 nM.
The matching figures for `O=C(Nc1ccc(Cl)c(C(F)(F)F)c1)Nc1cccc2[nH]c(C(F)(F)F)nc12` [Example 9]: 165 to 169 °C and under 100 nM.
In the same order, the values of `O=C(Nc1ccc(Cl)c(C(F)(F)F)c1)Nc1ccc2[nH]nnc2c1` [Example 10] are over 250 °C and 100 to 500 nM.
In the same order, the values of `O=C(NCc1ccc(Br)cc1)Nc1cccc2cc[nH]c12` [Example 11] are 205 to 208 °C and under 100 nM.
Consider `O=C(Nc1ccc(Oc2ccccc2)cc1)Nc1cccc2cc[nH]c12` [Example 12], for which the melting point is 216 to 218 °C. Also, the IC50 on human VR1 (read-out: hVR1 class) was in the range of 100 to 500 nM.
On to `O=C(Nc1ccc(Cl)c(C(F)(F)F)c1)Nc1ccc2c(c1)S(=O)(=O)C=C2` [Example 13], for which the IC50 on human VR1 (read-out: hVR1 class) is under 100 nM.
`CSc1nc2ccc(NC(=O)Nc3ccc(Cl)c(C(F)(F)F)c3)cc2s1` [Example 14]: the melting point lay within 236 to 238 °C. Also, the IC50 at human VR1 (read-out: hVR1 class) lay within 100 to 500 nM.
In the same order, the values of `Cc1nc2ccc(NC(=O)Nc3ccc(Cl)c(C(F)(F)F)c3)cc2s1` [Example 15] are 234 to 235 °C and 100 to 500 nM.
In the same order, the values of `Cc1nc2cc(NC(=O)Nc3ccc(Cl)c(C(F)(F)F)c3)ccc2s1` [Example 16] are 152 to 155 °C and under 100 nM.
The matching figures for `O=C(Nc1ccc2c(c1)C(=O)OC2)Nc1ccc(Cl)c(C(F)(F)F)c1` [Example 17]: over 250 °C and 100 to 500 nM.
For the compound `Cc1nc2cc(NC(=O)Nc3ccc(Cl)c(Cl)c3)ccc2s1` [Example 29], the IC50 at human VR1 (read-out: hVR1 class) was under 100 nM.
`O=C(Nc1cccc(C(F)(F)F)c1)Nc1ccc2c(c1)S(=O)(=O)C=C2` [Example 44] came in with a melting point of over 250 °C.
As for `Cc1nc2cc(NC(=O)Nc3cccc(-c4ccc(Cl)cc4)c3)ccc2s1` [Example 47], the IC50 on human VR1 (read-out: hVR1 class) was in the range of 100 to 500 nM.
Same read-out and setting: in the case of `Cc1cccc(NC(=O)Nc2ccc3[nH]ncc3c2)c1` [Example 103] it was 500 to 1000 nM.
The same measure, in the same setting: with `O=C(Nc1ccc(Cl)c(C(F)(F)F)c1)Nc1ccc2[nH]c(C(F)(F)F)nc2c1` [Example 104] the figure was 500 to 1000 nM; with `O=C(NCc1ccc(Br)cc1)Nc1cccc2[nH]c(C(F)(F)F)nc12` [Example 105], 500 to 1000 nM; with `O=C(Nc1ccc(Oc2ccccc2)cc1)Nc1cccc2[nH]c(C(F)(F)F)nc12` [Example 106], 100 to 500 nM.
